Results as given in US8426447B2, “Spiro-tricyclic ring compounds as beta-secretase modulators and methods of use” (Amgen Inc., priority 2008, dated 2013).

Key:
BACE1 [1] = target: T1, BACE1 (Homo sapiens, UniProt P56817); experiment: In Vitro BACE Cell-based Assay (HEK cell assay): Aβ40 in conditioned medium of cells stably expressing Amyloid Precursor Protein, sandwich ELISA; conditions: HEK cells
How it was run: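 Read-out is time-resolved fluorescence of Aβ40 in supernatant, captured by pAb40 and detected with biotinylated 6E10 plus Streptavidin-Europium. Cells stably expressing APP received compounds for 24 h over 10 concentrations starting at 100 μM or 10 μM, final DMSO 0.1%.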

BACE1 [2] = target: T1, BACE1; experiment: In Vitro Enzymatic BACE FRET (Fluorescence Resonance Energy Transfer) Assay; format: biochemical
How it was run: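 Cleavage of a 50 nM internally quenched peptide substrate is followed by fluorescence after a one-hour reaction in acidic acetate buffer, pH 4.2, terminated by Tris.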

T1 sequence (P56817 46-501, species assumed): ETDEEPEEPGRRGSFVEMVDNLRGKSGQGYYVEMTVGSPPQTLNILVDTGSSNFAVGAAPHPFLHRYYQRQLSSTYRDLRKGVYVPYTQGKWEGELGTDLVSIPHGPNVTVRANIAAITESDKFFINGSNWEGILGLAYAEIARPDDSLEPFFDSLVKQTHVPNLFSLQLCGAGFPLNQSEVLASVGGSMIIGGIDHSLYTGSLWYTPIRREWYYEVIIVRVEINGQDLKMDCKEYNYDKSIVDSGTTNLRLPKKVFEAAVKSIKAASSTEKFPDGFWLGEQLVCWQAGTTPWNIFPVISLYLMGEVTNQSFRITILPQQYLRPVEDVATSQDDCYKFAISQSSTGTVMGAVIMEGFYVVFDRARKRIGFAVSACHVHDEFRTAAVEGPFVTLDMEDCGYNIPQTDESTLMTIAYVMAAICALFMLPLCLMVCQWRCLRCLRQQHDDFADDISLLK

Row | IC50 (BACE1 [1]; read-out: HEK cell assay) [µM] | IC50 (BACE1 [2]; read-out: BACE1 FRET assay) [µM] | IC50 (BACE1 [1]; HEK cell assay (uM)) [µM] | IC50 (BACE1 [2]; BACE1 FRET assay (uM)) [µM] | SMILES
1 | < 0.1 | < 0.1 |  |  | NC1=N[C@@]2(CO1)c1cc(-c3cccc(Cl)c3)ccc1Oc1cnc(C3=CCOCC3)cc12 [compound 427, (5S)-7-(3-chlorophenyl)-3-(3,6-dihydro-2H-pyran-4-yl)spiro[chromeno[2,3-c]pyridine-5,4′-[1,3]oxazol]-2′-amine]
2 |  |  | < 0.1 | < 0.1 | Cc1cc(-c2cc3c(cn2)Oc2ccc(-c4cccnc4F)cc2[C@@]32COC(N)=N2)ccn1 [compound 429]
3 | 0.1 to 1 | < 0.1 |  |  | COc1cc(-c2cc3c(cn2)Oc2ccc(-c4cccnc4F)cc2[C@@]32COC(N)=N2)ccn1 [compound 430]
4 | < 0.1 | < 0.1 |  |  | NC1=N[C@@]2(CO1)c1cc(-c3ccc(F)nc3)ccc1Oc1cnc(C3=CCOCC3)cc12 [compound 431, (5S)-3-(3,6-dihydro-2H-pyran-4-yl)-7-(6-fluoro-3-pyridinyl)spiro[chromeno[2,3-c]pyridine-5,4′-[1,3]oxazol]-2′-amine]
5 | < 0.1 | < 0.1 |  |  | CC1(C)C[C@H](c2cc3c(cn2)Oc2ccc(-c4cccnc4F)cc2[C@@]32COC(N)=N2)CCO1 [compound 432]
6 | 0.1 to 1 | < 0.1 |  |  | NC1=N[C@@]2(CO1)c1cc(-c3ccc(F)nc3)ccc1Oc1cnc(-c3ccc(F)nc3)cc12 [compound 433]
7 |  |  | < 0.1 | < 0.1 | CC1(C)CC(c2cc3c(cn2)Oc2ccc(-c4cccnc4F)cc2[C@@]32COC(N)=N2)=CCO1 [compound 434]
8 |  |  | < 0.1 | < 0.1 | CC1(C)C=C(c2cc3c(cn2)Oc2ccc(-c4cccnc4F)cc2[C@@]32COC(N)=N2)CCO1 [compound 435]
9 | < 0.1 | < 0.1 |  |  | CC1(C)CC(c2cc3c(cn2)Oc2ccc(-c4cccnc4)cc2[C@@]32COC(N)=N2)=CCO1 [compound 436]
10 | < 0.1 | < 0.1 |  |  | CC1(C)C=C(c2cc3c(cn2)Oc2ccc(-c4cccnc4)cc2[C@@]32COC(N)=N2)CCO1 [compound 437, (5S)-3-(6,6-dimethyl-3,6-dihydro-2H-pyran-4-yl)-7-(3-pyridinyl)spiro[chromeno[2,3-c]pyridine-5,4′-[1,3]oxazol]-2′-amine]
11 | < 0.1 | < 0.1 |  |  | COC(=O)CN1CCN(c2cc3c(cn2)Oc2ccc(-c4cccnc4)cc2[C@@]32COC(N)=N2)CC1 [compound 438]
12 | < 0.1 | < 0.1 |  |  | NC1=N[C@@]2(CO1)c1cc(-c3cccnc3)ccc1Oc1cnc(N3CCNCC3)cc12 [compound 439]
13 | < 0.1 | < 0.1 |  |  | CC(C)(C)CNc1cc2c(cn1)Oc1ccc(-c3cccnc3)cc1[C@@]21COC(N)=N1 [compound 440]
14 | < 0.1 | < 0.1 |  |  | CC1CCN(c2cc3c(cn2)Oc2ccc(-c4cccnc4)cc2[C@@]32COC(N)=N2)CC1 [compound 441]
15 | < 0.1 | < 0.1 |  |  | NC1=N[C@@]2(CO1)c1cc(-c3cccnc3)ccc1Oc1cnc(N3CCC(=O)CC3)cc12 [compound 442]
16 | < 0.1 | < 0.1 |  |  | NC1=N[C@@]2(CO1)c1cc(-c3cccnc3)ccc1Oc1cnc(N3CCC4(CC3)OCCO4)cc12 [compound 443]
17 | < 0.1 | < 0.1 |  |  | CN1CCN(c2cc3c(cn2)Oc2ccc(-c4cccnc4)cc2[C@@]32COC(N)=N2)CC1 [compound 444]
18 | < 0.1 | < 0.1 |  |  | NC1=N[C@@]2(CO1)c1cc(-c3cccnc3)ccc1Oc1cnc(N3CCCCC3)cc12 [compound 445]
19 | 0.1 to 1 | 0.1 to 1 |  |  | NC1=N[C@@]2(CO1)c1cc(-c3cccnc3)ccc1Oc1cnc(N)cc12 [compound 446]
20 | 0.1 to 1 | < 0.1 |  |  | NC1=N[C@@]2(CO1)c1cc(-c3cccnc3)ccc1Oc1cnc(N3CCC3)cc12 [compound 447]
21 | < 0.1 | < 0.1 |  |  | NC1=N[C@]2(CO1)c1cc(C3=CCOC3)ccc1Oc1ccc(-c3cncnc3)cc12 [compound 448]
22 | < 0.1 | < 0.1 |  |  | CC(C)(F)COc1cnc2c(c1)[C@]1(COC(N)=N1)c1cc(-c3cccnc3F)ccc1O2 [compound 449]
